Reference: patent US11718604B2, “4-amino-6-(1,3-benzodioxole)picolinates and their use as herbicides” (Dow AgroSciences LLC, priority 2018, dated 2023)

Assays:
Type in all cases: in vivo
[1] = tested on: EPHHL: wild poinsettia (Euphorbia heterophylla); test: Post-emergent herbicidal test, wild poinsettia; settings: post-emergence, 336 h, 14 days after application, read-out: Visual Growth Reduction (%) 14 Days After Application EPHHL; for pest or weed control at 17.5 g/ha: 17.5 g ai/ha; for pest or weed control at 35 g/ha: 35 g ai/ha; for pest or weed control at 70 g/ha: 70 g ai/ha; for pest or weed control at 140 g/ha: 140 g ai/ha
Outline: (§1)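 Post-emergence foliar spray, 187 L/ha, 1st–2nd true leaf plants; vehicle acetone/DMSO/IPA/water + Atplus 411F + Triton X-155; solvent-blank controls; subirrigated; 14 d greenhouse, visual % injury.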

[2] = tested on: CIRAR: Canada thistle (Cirsium arvense); test: Post-emergent herbicidal test, Canada thistle; settings: post-emergence, 336 h, 14 days after application, read-out: Visual Growth Reduction (%) 14 Days After Application CIRAR; for pest or weed control at 17.5 g/ha: 17.5 g ai/ha; for pest or weed control at 35 g/ha: 35 g ai/ha; for pest or weed control at 70 g/ha: 70 g ai/ha; for pest or weed control at 140 g/ha: 140 g ai/ha
Outline: as §1

[3] = tested on: VIOTR: wild violet (Viola tricolor); test: Post-emergent herbicidal test, wild violet; settings: post-emergence, 336 h, 14 days after application, read-out: Visual Growth Reduction (%) 14 Days After Application VIOTR; for pest or weed control at 17.5 g/ha: 17.5 g ai/ha; for pest or weed control at 35 g/ha: 35 g ai/ha; for pest or weed control at 70 g/ha: 70 g ai/ha; for pest or weed control at 140 g/ha: 140 g ai/ha
Outline: as §1

[4] = tested on: ABUTH: velvetleaf (Abutilon theophrasti); test: Post-emergent herbicidal test, velvetleaf; settings: post-emergence, 336 h, 14 days after application, read-out: Visual Growth Reduction (%) 14 Days After Application ABUTH; for pest or weed control at 17.5 g/ha: 17.5 g ai/ha; for pest or weed control at 35 g/ha: 35 g ai/ha; for pest or weed control at 70 g/ha: 70 g ai/ha; for pest or weed control at 140 g/ha: 140 g ai/ha
Outline: as §1

[5] = tested on: BRSNN: oilseed rape, canola (Brassica napus); test: Post-emergent herbicidal test, oilseed rape; settings: post-emergence, 336 h, 14 days after application, read-out: Visual Growth Reduction (%) 14 Days After Application BRSNN; for pest or weed control at 17.5 g/ha: 17.5 g ai/ha; for pest or weed control at 35 g/ha: 35 g ai/ha; for pest or weed control at 70 g/ha: 70 g ai/ha; for pest or weed control at 140 g/ha: 140 g ai/ha
Outline: as §1

[6] = tested on: CYPES: yellow nutsedge (Cyperus esculentus); test: Post-emergent herbicidal test, yellow nutsedge; settings: post-emergence, 336 h, 14 days after application, read-out: Visual Growth Reduction (%) 14 Days After Application CYPES; for pest or weed control at 17.5 g/ha: 17.5 g ai/ha; for pest or weed control at 35 g/ha: 35 g ai/ha; for pest or weed control at 70 g/ha: 70 g ai/ha; for pest or weed control at 140 g/ha: 140 g ai/ha
Outline: as §1

[7] = tested on: SORVU: shattercane (Sorghum bicolor); test: Post-emergent herbicidal test, shattercane; settings: post-emergence, 336 h, 14 days after application, read-out: Visual Growth Reduction (%) 14 Days After Application SORVU; for pest or weed control at 17.5 g/ha: 17.5 g ai/ha; for pest or weed control at 35 g/ha: 35 g ai/ha; for pest or weed control at 70 g/ha: 70 g ai/ha; for pest or weed control at 140 g/ha: 140 g ai/ha
Outline: as §1

[8] = tested on: ECHCG: barnyardgrass (Echinochloa crus-galli); test: Post-emergent herbicidal test, barnyardgrass; settings: post-emergence, 336 h, 14 days after application, read-out: Visual Growth Reduction (%) 14 Days After Application ECHCG; for pest or weed control at 17.5 g/ha: 17.5 g ai/ha; for pest or weed control at 35 g/ha: 35 g ai/ha; for pest or weed control at 70 g/ha: 70 g ai/ha; for pest or weed control at 140 g/ha: 140 g ai/ha
Outline: as §1

[9] = tested on: DIGSA: large crabgrass (Digitaria sanguinalis); test: Post-emergent herbicidal test, large crabgrass; settings: post-emergence, 336 h, 14 days after application, read-out: Visual Growth Reduction (%) 14 Days After Application DIGSA; for pest or weed control at 17.5 g/ha: 17.5 g ai/ha; for pest or weed control at 35 g/ha: 35 g ai/ha; for pest or weed control at 70 g/ha: 70 g ai/ha; for pest or weed control at 140 g/ha: 140 g ai/ha
Outline: as §1

[10] = tested on: IPOHE: ivyleaf morningglory (Ipomoea hederacea); test: Post-emergent herbicidal test, ivyleaf morningglory; settings: post-emergence, 336 h, 14 days after application, read-out: Visual Growth Reduction (%) 14 Days After Application IPOHE; for pest or weed control at 17.5 g/ha: 17.5 g ai/ha; for pest or weed control at 35 g/ha: 35 g ai/ha; for pest or weed control at 70 g/ha: 70 g ai/ha; for pest or weed control at 140 g/ha: 140 g ai/ha
Outline: as §1

[11] = tested on: SETFA: giant foxtail (Setaria faberi); test: Post-emergent herbicidal test, giant foxtail; settings: post-emergence, 336 h, 14 days after application, read-out: Visual Growth Reduction (%) 14 Days After Application SETFA; for pest or weed control at 17.5 g/ha: 17.5 g ai/ha; for pest or weed control at 35 g/ha: 35 g ai/ha; for pest or weed control at 70 g/ha: 70 g ai/ha; for pest or weed control at 140 g/ha: 140 g ai/ha
Outline: as §1

Nc1c(F)c(-c2cccc3c2OCO3)nc(C(=O)O)c1Cl [Compound 3]
pest or weed control at 17.5 g/ha [1]: 0% | pest or weed control at 35 g/ha [1]: 0% | pest or weed control at 70 g/ha [1]: 0% | pest or weed control at 140 g/ha [1]: 0% | pest or weed control at 17.5 g/ha [2]: 70% | pest or weed control at 35 g/ha [2]: 85% | pest or weed control at 70 g/ha [2]: 95% | pest or weed control at 140 g/ha [2]: 95% | pest or weed control at 17.5 g/ha [3]: 0% | pest or weed control at 35 g/ha [3]: 15% | pest or weed control at 70 g/ha [3]: 30% | pest or weed control at 140 g/ha [3]: 35% | pest or weed control at 17.5 g/ha [4]: 60% | pest or weed control at 35 g/ha [4]: 80% | pest or weed control at 70 g/ha [4]: 95% | pest or weed control at 140 g/ha [4]: 95% | pest or weed control at 17.5 g/ha [5]: 60% | pest or weed control at 35 g/ha [5]: 80% | pest or weed control at 70 g/ha [5]: 95% | pest or weed control at 140 g/ha [5]: 98% | pest or weed control at 17.5 g/ha [6]: 0% | pest or weed control at 35 g/ha [6]: 0% | pest or weed control at 70 g/ha [6]: 0% | pest or weed control at 140 g/ha [6]: 0% | pest or weed control at 17.5 g/ha [7]: 0% | pest or weed control at 35 g/ha [7]: 0% | pest or weed control at 70 g/ha [7]: 0% | pest or weed control at 140 g/ha [7]: 0% | pest or weed control at 17.5 g/ha [8]: 0% | pest or weed control at 35 g/ha [8]: 0% | pest or weed control at 70 g/ha [8]: 0% | pest or weed control at 140 g/ha [8]: 0% | pest or weed control at 17.5 g/ha [9]: 0% | pest or weed control at 35 g/ha [9]: 0% | pest or weed control at 70 g/ha [9]: 0% | pest or weed control at 140 g/ha [9]: 0% | pest or weed control at 17.5 g/ha [10]: 0% | pest or weed control at 35 g/ha [10]: 0% | pest or weed control at 70 g/ha [10]: 0% | pest or weed control at 140 g/ha [10]: 0% | pest or weed control at 17.5 g/ha [11]: 0% | pest or weed control at 35 g/ha [11]: 0% | pest or weed control at 70 g/ha [11]: 0% | pest or weed control at 140 g/ha [11]: 0%

COC(=O)c1nc(-c2ccc(F)c3c2OCO3)c(F)c(N)c1Cl [Compound 15]
pest or weed control at 17.5 g/ha [1]: 0% | pest or weed control at 35 g/ha [1]: 0% | pest or weed control at 70 g/ha [1]: 0% | pest or weed control at 140 g/ha [1]: 0% | pest or weed control at 17.5 g/ha [2]: 80% | pest or weed control at 35 g/ha [2]: 85% | pest or weed control at 70 g/ha [2]: 90% | pest or weed control at 140 g/ha [2]: 95% | pest or weed control at 17.5 g/ha [3]: 30% | pest or weed control at 35 g/ha [3]: 60% | pest or weed control at 70 g/ha [3]: 70% | pest or weed control at 140 g/ha [3]: 80% | pest or weed control at 17.5 g/ha [4]: 70% | pest or weed control at 35 g/ha [4]: 85% | pest or weed control at 70 g/ha [4]: 90% | pest or weed control at 140 g/ha [4]: 100% | pest or weed control at 17.5 g/ha [5]: 20% | pest or weed control at 35 g/ha [5]: 40% | pest or weed control at 70 g/ha [5]: 95% | pest or weed control at 140 g/ha [5]: 100% | pest or weed control at 17.5 g/ha [6]: 0% | pest or weed control at 35 g/ha [6]: 0% | pest or weed control at 70 g/ha [6]: 0% | pest or weed control at 140 g/ha [6]: 0% | pest or weed control at 17.5 g/ha [7]: 0% | pest or weed control at 35 g/ha [7]: 0% | pest or weed control at 70 g/ha [7]: 0% | pest or weed control at 140 g/ha [7]: 20% | pest or weed control at 17.5 g/ha [8]: 0% | pest or weed control at 35 g/ha [8]: 0% | pest or weed control at 70 g/ha [8]: 0% | pest or weed control at 140 g/ha [8]: 0% | pest or weed control at 17.5 g/ha [9]: 0% | pest or weed control at 35 g/ha [9]: 0% | pest or weed control at 70 g/ha [9]: 0% | pest or weed control at 140 g/ha [9]: 0% | pest or weed control at 17.5 g/ha [10]: 0% | pest or weed control at 35 g/ha [10]: 0% | pest or weed control at 70 g/ha [10]: 0% | pest or weed control at 140 g/ha [10]: 0% | pest or weed control at 17.5 g/ha [11]: 0% | pest or weed control at 35 g/ha [11]: 0% | pest or weed control at 70 g/ha [11]: 0% | pest or weed control at 140 g/ha [11]: 20%
